Data from US6310037A, “Method of controlling protozoan infections using syringomycin-family lipodepsipeptides” (Utah State University, priority 1999, dated 2001).
Values after ≈ are worked out from the molar mass of the structure shown. Where a SMILES comes first, the peptide text is derived from it. Bridges are numbered along the chain shown (N, C = ends). [ ]: non-standard residue; d: D form. The star is where a group is joined. Asp(3S-OH) = N[C@H](C(=O)O)[C@H](O)C(=O)O; Thr(4-Cl) = N[C@H](C(=O)O)[C@H](O)CCl; X1 = CCCCCCCCC[C@@H](O)CC(=O)*; dDab = NCC[C@@H](N)C(=O)O; Dab = NCC[C@H](N)C(=O)O; Dhb = C/C=C(\N)C(=O)O

Key:
[1] = test system: BFTE cells; assay: Toxic effect of Syr-E on BFTE host cells at pH 6.3 (neutral red assay, visual observation); type: cell-based, bovine
Procedure: Primary BFTE cell cultures were prepared from bovine fallopian tubes (FT). Fat was trimmed from the serosal surfaces, mucus was gently squeezed from the lumens, and FT were decontaminated by being submerged in 70% ethanol for 30 seconds. The FT were then transferred to sterile culture petri dishes containing HBSS and washed twice. The BFTE cells were harvested either by flushing the FT with HBSS, using a 10 ml syringe equipped with a mouse feeding needle, or by opening the FT lengthwise with scissors and scraping the mucosal surfaces. The BFTE cells were subsequently washed in HBSS by centrifugation at 200×g (force of gravity) for 10 minutes, planted in 75-cm^2 flasks containing RPMI 1640 and cultured in a 5% CO2 incubator at 37° C. for 72 to 120 hours. When the cell lines reached confluency, they were trypsinized, split, and planted onto cover slips positioned on the bottoms of individual wells in 24-well tissue culture plates. When cells reached 80% confluency, they were inoculated with either 10^5 oocysts or 4×10^5 sporozoites per well. Plates were then maintained at 37° C. in a candle jar environment (17% O2, 3% CO2, 80% N2). Growth medium was changed in each well every 72 hours. In wells inoculated with oocysts, the medium was first changed at 24 hours to remove any unexcysted oocysts.
Neutral red assay was used to measure viewable cell damage, such as obvious plaque forming and cell peeling. Briefly, 0.1 ml of neutral red was directly added to supernatant in each well of 96-well plates at the termination of the culture. Following 1-hr incubation at 37°C., the supernatant mixture from each well was discarded and cells at the bottom of the wells were rinsed twice with PBS. A volume of 0.2 ml/well extract buffer was added and the content in each well was well mixed prior to 30 min. incubation in the dark at 25°C. cytotoxicity was quantitatively read using a Microplate Autoreader (Bio-Tek Instruments, Inc., Winooski, Vt.) with a wavelength set at 540 nm.
Samples were collected on day 2 post inoculation. Each group consisted of both uninfected (empty bar) and C. parvum infected (solid bar) subgroups. In group 1, the medium pH was adjusted to 7.2, no Syr-E was used, and the cytotoxicity of the uninfected subgroup set to zero percent. Medium pH in groups 2-8 was adjusted to 6.3 and groups 3-8 received Syr-E treatments at 1, 2, 4, 8, 16, and 32 ,g/ml, respectively. Data are presented as the means +/- standard error of the mean. The cytotoxic effect increased from approximately 40% to 60% as Syr-E concentrations were elevated from 1 to 16 μg/ml, presenting a dose-dependent response. […] BFTE cells were 98% destroyed when Syr-E concentration reached 32 μg/ml at pH 6.3.

[2] = test system: P. falciparum D6; type: cell-based; details: D6 isolate, pH 7.0, 66 hour incubation
From the text: (§1) P. falciparum used in this study were two well characterized clones, W2 and D6, as described in Oduola, A. M. et al., Plasmodium falciparum: cloning by single-erythrocyte micromanipulation and heterogeneity in vitro; Exp. Parasitol. 66, 86-95 (1988), the contents of which are incorporated herein by this reference. W2 is a clone of the Indochina I isolate and is resistant to chloroquine and pyrimethamine, but susceptible to mefloquine. D6 is a clone from the Sierra I/UNC isolate and is susceptible to chloroquine and pyrimethamine, but has reduced susceptibilities to mefloquine and halofantrine.
(§2) The susceptibility of P. falciparum to Syr-E was studied using a modified antimalarial drug susceptibility screen following the procedures published by Desjardins et al., Quantitative assessment of antimalarial activity in vitro by semiautomated microdilution technique (1979), with modifications developed by Milhous et al., In vitro strategies for circumventing antimalarial drug resistance, Prog. […]
(§3) Syr-E was dissolved directly in dimethylsulfoxide (DMSO) and diluted 400 fold with complete culture media and started at a highest concentration of 50,000 ng/ml. […] The filter mats were then counted in a scintillation counter and the data downloaded with custom, automated analysis software (developed at the Walter Reed Army Institute of Research). […]

[3] = test system: P. falciparum W2; type: cell-based; details: W2 isolate, pH 7.0, 66 hour incubation
From the text: as §1, §2, §3

[4] = test system: C. parvum; type: cell-based, C. parvum (bovine isolate); details: MDBK cells, day 2 post inoculation

For `C/C=C1\NC(=O)[C@H](Cc2ccccc2)NC(=O)[C@H](CCCNC(=N)N)NC(=O)[C@H](CCN)NC(=O)[C@@H](CCN)NC(=O)[C@@H](CO)NC(=O)[C@@H](NC(=O)C[C@H](O)CCCCCCCCC)COC(=O)[C@H]([C@H](O)CCl)NC(=O)[C@H]([C@H](O)C(=O)O)NC1=O` [Syr-E, Syringomycin-E] (X1-S[dS][dDab][Dab]RF[Dhb][Asp(3S-OH)][Thr(4-Cl)]; ester 1-C), the “cytotoxic effect (neutral red assay)” value ([1]; Syr-E 1 μg/ml, BFTE cells, pH 6.3, day 2 post inoculation) was “approximately 40%”, the “cytotoxic effect (neutral red assay)” value ([1]; Syr-E 16 μg/ml, BFTE cells, pH 6.3, day 2 post inoculation) was about 60% and the “BFTE cells destroyed (neutral red assay)” value ([1]; Syr-E 32 μg/ml, pH 6.3, day 2 post inoculation) was 98%. For the same compound, the visual cell damage ([1]; Syr-E 0.5-9.0 μg/ml, BFTE cells, pH 6.3) was “Visual cell plaques were observed”, the IC50 [2] was 3.03 µg/mL (≈ 2.47 µM) and the IC50 [3] was 3.23 µg/mL (≈ 2.64 µM). The “infection percentage compared to the untreated control” value ([4]; Syr-E 5.0 μg/ml) was “significantly (P<0.05) reduced the infection percentage” and the “inhibition of parasite growth and development” value ([4]; Syr-E 20 μg/ml) was 99.5%.
